Earlier results, collected in US10427251B2, “Fine silver particle dispersion, fine silver particles, and method for producing same” (BANDO CHEMICAL INDUSTRIES, LTD., priority 2014, dated 2019).

Details: n-octanol/water

partition coefficient log P | SMILES
1.0 | CCCCN [butylamine]
0.5 | CCCN [propylamine]
−0.3 | NCCCCCO [pentanolamine]

Second part, the compound before the results:

SMILES | partition coefficient log P
COCCN [2-methoxyethylamine] | −0.9
CCOCCCN [3-ethoxypropylamine] | −0.1
CCCCCCN [hexylamine] | 2.1
COCCCN [3-methoxypropylamine] | −0.5
CCN [ethylamine] | −0.3
NCCCN [1,3-propanediamine] | −1.4
